Test results published in ChEMBL document CHEMBL1148526, “Facile purification of honokiol and its antiviral and cytotoxic properties” (J Med Chem, 2006).

Key:
Assay type in all cases: functional
PBMC [1] = assay: Selectivity index of antiviral vs cytoxic activity in PBM cells (CC50/EC50)
Vero = assay: Cytotoxicity against Vero cells; details: Chlorocebus sabaeus
CCRF-CEM = assay: Cytotoxicity against human CEM cells
PBMC [2] = assay: Cytotoxicity against human PBM cells

| Compound | Ratio CC50/EC50 (PBMC [1]) | CC50 (Vero) [µM] | CC50 (CCRF-CEM) [µM] | CC50 (PBMC [2]) [µM] |
| --- | --- | --- | --- | --- |
| C=CCc1ccc(O)c(-c2ccc(O)c(CC=C)c2)c1 [HONOKIOL] | 5 | 22.5 | 10.9 | 16.1 |
| C=CCc1ccc(O)c(-c2cc(CC=C)ccc2O)c1 [MAGNOLOL] | – | 50.6 | 99.5 | 38.6 |
